Experiments:
[1] = (§1) The drug is tested on Z-027 corresponding to metagenome with ENA study accession number: PRJEB37062 and ENA sample accession number: ERS12561826 for biotransformation under anaerobic condition. The drug concentrations were measured over 9 timepoints collected between 0 and 24 hours of incubation by liquid-chromatography-coupled mass spectrometry (LC–MS); conditions: 2 µM
[2] = (§2) The drug is tested on Z-016 corresponding to mouse gut metagenome with ENA study accession number: PRJEB37062 and ENA sample accession number: ERS12561815 for biotransformation under anaerobic condition. The drug concentrations were measured over 9 timepoints collected between 0 and 24 hours of incubation by liquid-chromatography-coupled mass spectrometry (LC–MS); conditions: 2 µM
[3] = as §2, with “WLS-310” for “Z-016”, “human” for “mouse”, “ERS12561785” for “ERS12561815”; conditions: 2 µM
[4] = as §2, with “WLS-220” for “Z-016”, “human” for “mouse”, “ERS12561769” for “ERS12561815”; conditions: 2 µM
[5] = as §2, with “WLS-077” for “Z-016”, “human” for “mouse”, “ERS12561750” for “ERS12561815”; conditions: 2 µM
[6] = as §2, with “WLS-039” for “Z-016”, “human” for “mouse”, “ERS12561746” for “ERS12561815”; conditions: 2 µM
[7] = as §2, with “WLS-007” for “Z-016”, “human” for “mouse”, “ERS12561742” for “ERS12561815”; conditions: 2 µM
[8] = human gut metagenome, 24 h, 2 µM
[9] = human gut metagenome, 24 h, 2 µM; remark: listed apart in the source
[10] = human gut metagenome, 24 h, 2 µM; remark: listed apart in the source
[11] = human gut metagenome, 24 h, 2 µM; remark: listed apart in the source
[12] = human gut metagenome, 24 h, 2 µM; remark: listed apart in the source
[13] = human gut metagenome, 24 h, 2 µM; remark: listed apart in the source
[14] = human gut metagenome, 24 h, 2 µM; remark: listed apart in the source
[15] = human gut metagenome, 24 h, 2 µM; remark: listed apart in the source
[16] = as §2, with “WLS-082” for “Z-016”, “human” for “mouse”, “ERS12561751” for “ERS12561815”; conditions: 2 µM
[17] = as §2, with “WLS-052” for “Z-016”, “human” for “mouse”, “ERS12561747” for “ERS12561815”; conditions: 2 µM
[18] = as §1, with “Z-004” for “Z-027”, “ERS12561804” for “ERS12561826”; conditions: 2 µM
[19] = as §2, with “Z-018” for “Z-016”, “pig” for “mouse”, “ERS12561817” for “ERS12561815”; conditions: 2 µM
Further: call rule not given here.

CN1CCc2cccc3c2[C@H]1Cc1ccc(O)c(O)c1-3 [APOMORPHINE]
Bacterial Biotransformation [1]: Compound NOT metabolized
Bacterial Biotransformation [2]: Compound NOT metabolized
Bacterial Biotransformation [3]: Compound NOT metabolized
Bacterial Biotransformation [4]: Compound NOT metabolized
Bacterial Biotransformation [5]: Compound NOT metabolized
Bacterial Biotransformation [6]: Compound NOT metabolized
Bacterial Biotransformation [7]: Compound NOT metabolized
Bacterial Biotransformation [8]: Compound NOT metabolized
Bacterial Biotransformation [9]: Compound NOT metabolized
Bacterial Biotransformation [10]: Compound NOT metabolized
Bacterial Biotransformation [11]: Compound NOT metabolized
Bacterial Biotransformation [12]: Compound NOT metabolized
Bacterial Biotransformation [13]: Compound NOT metabolized
Bacterial Biotransformation [14]: Compound NOT metabolized
Bacterial Biotransformation [15]: Compound NOT metabolized

CC(=O)O[C@]1(C(C)=O)CC[C@H]2[C@@H]3C=C(Cl)C4=CC(=O)[C@@H]5C[C@@H]5[C@]4(C)[C@H]3CC[C@@]21C [CYPROTERONE ACETATE]
Bacterial Biotransformation [3]: Compound metabolized
Bacterial Biotransformation [4]: Compound metabolized
Bacterial Biotransformation [16]: Compound NOT metabolized
Bacterial Biotransformation [5]: Compound metabolized
Bacterial Biotransformation [17]: Compound metabolized
Bacterial Biotransformation [6]: Compound metabolized
Bacterial Biotransformation [7]: Compound metabolized
Bacterial Biotransformation [8]: Compound metabolized
Bacterial Biotransformation [9]: Compound metabolized
Bacterial Biotransformation [10]: Compound metabolized
Bacterial Biotransformation [11]: Compound metabolized
Bacterial Biotransformation [12]: Compound metabolized
Bacterial Biotransformation [13]: Compound metabolized
Bacterial Biotransformation [14]: Compound metabolized
Bacterial Biotransformation [15]: Compound NOT metabolized

C#C[C@]1(O)CC[C@H]2[C@@H]3CCC4=Cc5oncc5C[C@]4(C)[C@H]3CC[C@@]21C [DANAZOL]
Bacterial Biotransformation [1]: Compound metabolized
Bacterial Biotransformation [2]: Compound NOT metabolized
Bacterial Biotransformation [3]: Compound metabolized
Bacterial Biotransformation [4]: Compound metabolized
Bacterial Biotransformation [16]: Compound metabolized
Bacterial Biotransformation [5]: Compound metabolized
Bacterial Biotransformation [17]: Compound metabolized
Bacterial Biotransformation [6]: Compound metabolized
Bacterial Biotransformation [7]: Compound metabolized
Bacterial Biotransformation [8]: Compound metabolized
Bacterial Biotransformation [11]: Compound NOT metabolized
Bacterial Biotransformation [13]: Compound metabolized
Bacterial Biotransformation [15]: Compound metabolized

CN1C[C@H](C(=O)N[C@]2(C)O[C@@]3(O)[C@@H]4CCCN4C(=O)[C@H](Cc4ccccc4)N3C2=O)C=C2c3cccc4[nH]cc(c34)C[C@H]21.CN1C[C@H](C(=O)N[C@]2(C)O[C@@]3(O)[C@@H]4CCCN4C(=O)[C@H](Cc4ccccc4)N3C2=O)C=C2c3cccc4[nH]cc(c34)C[C@H]21.O=C(O)C(O)C(O)C(=O)O [ERGOTAMINE TARTRATE]
Bacterial Biotransformation [3]: Compound metabolized
Bacterial Biotransformation [5]: Compound metabolized
Bacterial Biotransformation [17]: Compound metabolized
Bacterial Biotransformation [6]: Compound metabolized
Bacterial Biotransformation [7]: Compound metabolized
Bacterial Biotransformation [8]: Compound metabolized
Bacterial Biotransformation [9]: Compound metabolized
Bacterial Biotransformation [10]: Compound metabolized
Bacterial Biotransformation [11]: Compound metabolized
Bacterial Biotransformation [13]: Compound metabolized
Bacterial Biotransformation [14]: Compound metabolized
Bacterial Biotransformation [15]: Compound NOT metabolized

COC(=O)C1=C(C)NC(C)=C(C(=O)OC(C)C)C1c1cccc2nonc12 (stereo not given) [ISRADIPINE]
Bacterial Biotransformation [18]: Compound metabolized
Bacterial Biotransformation [3]: Compound metabolized
Bacterial Biotransformation [4]: Compound metabolized
Bacterial Biotransformation [16]: Compound metabolized
Bacterial Biotransformation [5]: Compound NOT metabolized
Bacterial Biotransformation [17]: Compound metabolized
Bacterial Biotransformation [7]: Compound metabolized
Bacterial Biotransformation [8]: Compound metabolized
Bacterial Biotransformation [9]: Compound metabolized
Bacterial Biotransformation [10]: Compound NOT metabolized
Bacterial Biotransformation [11]: Compound metabolized
Bacterial Biotransformation [12]: Compound metabolized
Bacterial Biotransformation [13]: Compound metabolized
Bacterial Biotransformation [14]: Compound metabolized
Bacterial Biotransformation [15]: Compound NOT metabolized

CN(C(=O)CN(CCO)CC(=O)N(C)C(C)(C)Cc1ccccc1)C(C)(C)Cc1ccccc1 [OXETHAZAINE]
Bacterial Biotransformation [3]: Compound metabolized
Bacterial Biotransformation [4]: Compound metabolized
Bacterial Biotransformation [16]: Compound metabolized
Bacterial Biotransformation [5]: Compound metabolized
Bacterial Biotransformation [17]: Compound metabolized
Bacterial Biotransformation [6]: Compound metabolized
Bacterial Biotransformation [7]: Compound NOT metabolized
Bacterial Biotransformation [8]: Compound metabolized
Bacterial Biotransformation [9]: Compound metabolized
Bacterial Biotransformation [10]: Compound NOT metabolized
Bacterial Biotransformation [11]: Compound metabolized
Bacterial Biotransformation [12]: Compound metabolized
Bacterial Biotransformation [13]: Compound metabolized
Bacterial Biotransformation [14]: Compound metabolized
Bacterial Biotransformation [15]: Compound NOT metabolized

Cc1nc2n(c(=O)c1CCN1CCC(c3noc4cc(F)ccc34)CC1)CCCC2O (stereo not given) [PALIPERIDONE]
Bacterial Biotransformation [1]: Compound NOT metabolized
Bacterial Biotransformation [19]: Compound NOT metabolized
Bacterial Biotransformation [2]: Compound NOT metabolized
Bacterial Biotransformation [3]: Compound metabolized
Bacterial Biotransformation [4]: Compound metabolized
Bacterial Biotransformation [5]: Compound metabolized
Bacterial Biotransformation [17]: Compound metabolized
Bacterial Biotransformation [6]: Compound metabolized
Bacterial Biotransformation [7]: Compound metabolized
Bacterial Biotransformation [8]: Compound metabolized
Bacterial Biotransformation [9]: Compound metabolized
Bacterial Biotransformation [10]: Compound metabolized
Bacterial Biotransformation [11]: Compound metabolized
Bacterial Biotransformation [12]: Compound metabolized
Bacterial Biotransformation [13]: Compound metabolized
Bacterial Biotransformation [14]: Compound metabolized
Bacterial Biotransformation [15]: Compound NOT metabolized

CN1CCN(CC/C=C2/c3ccccc3Sc3ccc(S(=O)(=O)N(C)C)cc32)CC1 [THIOTHIXENE]
Bacterial Biotransformation [3]: Compound metabolized
Bacterial Biotransformation [4]: Compound metabolized
Bacterial Biotransformation [16]: Compound metabolized
Bacterial Biotransformation [5]: Compound NOT metabolized
Bacterial Biotransformation [17]: Compound metabolized
Bacterial Biotransformation [6]: Compound metabolized
Bacterial Biotransformation [7]: Compound NOT metabolized
Bacterial Biotransformation [8]: Compound metabolized
Bacterial Biotransformation [9]: Compound metabolized
Bacterial Biotransformation [10]: Compound metabolized
Bacterial Biotransformation [11]: Compound metabolized
Bacterial Biotransformation [12]: Compound metabolized
Bacterial Biotransformation [13]: Compound metabolized
Bacterial Biotransformation [14]: Compound metabolized
Bacterial Biotransformation [15]: Compound metabolized

Cc1ccc(/C(=C\CN2CCCC2)c2ccccn2)cc1 [TRIPROLIDINE]
Bacterial Biotransformation [1]: Compound NOT metabolized
Bacterial Biotransformation [2]: Compound NOT metabolized
Bacterial Biotransformation [18]: Compound NOT metabolized
Bacterial Biotransformation [3]: Compound NOT metabolized
Bacterial Biotransformation [4]: Compound NOT metabolized
Bacterial Biotransformation [16]: Compound NOT metabolized
Bacterial Biotransformation [5]: Compound NOT metabolized
Bacterial Biotransformation [17]: Compound NOT metabolized
Bacterial Biotransformation [6]: Compound NOT metabolized
Bacterial Biotransformation [7]: Compound NOT metabolized
Bacterial Biotransformation [8]: Compound NOT metabolized
Bacterial Biotransformation [9]: Compound NOT metabolized
Bacterial Biotransformation [10]: Compound NOT metabolized
Bacterial Biotransformation [11]: Compound NOT metabolized
Bacterial Biotransformation [12]: Compound NOT metabolized
Bacterial Biotransformation [13]: Compound metabolized
Bacterial Biotransformation [14]: Compound NOT metabolized
Bacterial Biotransformation [15]: Compound NOT metabolized

CS(=O)(=O)O.O.O.O.O=C1Cc2cc(CCN3CCN(c4nsc5ccccc45)CC3)c(Cl)cc2N1 [ZIPRASIDONE MESYLATE]
Bacterial Biotransformation [3]: Compound metabolized
Bacterial Biotransformation [4]: Compound metabolized
Bacterial Biotransformation [16]: Compound metabolized
Bacterial Biotransformation [5]: Compound NOT metabolized
Bacterial Biotransformation [17]: Compound metabolized
Bacterial Biotransformation [6]: Compound metabolized
Bacterial Biotransformation [7]: Compound NOT metabolized
Bacterial Biotransformation [8]: Compound NOT metabolized
Bacterial Biotransformation [9]: Compound NOT metabolized
Bacterial Biotransformation [10]: Compound NOT metabolized
Bacterial Biotransformation [11]: Compound metabolized
Bacterial Biotransformation [12]: Compound metabolized
Bacterial Biotransformation [13]: Compound metabolized
Bacterial Biotransformation [14]: Compound metabolized
Bacterial Biotransformation [15]: Compound NOT metabolized
